In BindingDB's records for doi:10.1016/j.bmc.2012.10.010 (National Research Center, 2012):

Molecular target: Urokinase-type plasminogen activator (Homo sapiens) (UniProt P00749)
Assay: Binding affinity to uPA

Row | Ki | Compound
1 | 1 pM | N#Cc1cc(-c2ccccc2)n(Cc2nc3ccccc3[nH]2)c1N
2 | 3 pM | N#Cc1cc(-c2ccccc2)n(-c2ccc(Cl)cc2)c1N
3 | 3 pM | N#Cc1cc(-c2ccccc2)n(-c2ccc(Br)cc2)c1N
